Measurements: patent US4610976A, “Porcine GRF” (The Salk Institute for Biological Studies, priority 1983, dated 1986)

Tested on: cells of rat pituitary glands
Experiment: in vitro growth hormone release assay in rat pituitary cell monolayer cultures (ir GH by radioimmunoassay)
Format: cell-based
Conditions: equimolar concentrations, side-by-side with synthetic hGRF(1-44)-NH2; incubation 3 to 4 hours; ir GH in culture medium
Experimental: To determine the effectiveness of the peptide to promote the release of growth hormone, in vitro assays are carried out using synthetic hGRF(1-44)-NH2 in side-by-side comparison with equimolar concentrations of the extracted and purified pGRF(1-44) of Example II and of a GRF Reference Standard having a known effectiveness to promote the release of growth hormone from pituitary cells. The GRF Reference standard is described and defined in Brazeau, et al., Endocrinology, Vol. 110, A538(1982) and is an amount of a preparation of rat hypothalamic origin that produces a half-maximal response in terms of GH release in a pituitary cell monolayer bioassay. Cultures are used which include cells of rat pituitary glands removed some four to five days previously. Both cultures of a defined standard medium and cultures which are considered optimal for the secretion of growth hormone are used for the comparative testing, in the general manner described in Brazeau, et al. Regulatory Peptides, 1, 255, 1981. Incubation with the substance to be tested is carried out for 3 to 4 hours, and aliquots of the culture medium are removed and processed to measure their contents in inmunoreactive GH(ir GH) by a well-characterized radioimmunoassay.

Substance: Tyr-Ala-Asp-Ala-Ile-Phe-Thr-Asn-Ser-Tyr-Arg-Lys-Val-Leu-Gly-Gln-Leu-Ser-Ala-Arg-Lys-Leu-Leu-Gln-Asp-Ile-Met-Ser-Arg-Gln-Gln-Gly-Glu-Arg-Asn-Gln-Glu-Gln-Gly-Ala-Arg-Val-Arg-Leu (YADAIFTNSYRKVLGQLSARKLLQDIMSRQQGERNQEQGARVRL; printed: Tyr-Ala-Asp-Ala-Ile-Phe-Thr-Asn-Ser-Tyr-Arg-Lys-Val-Leu-Gly-Gln-Leu-Ser-Ala-Arg-Lys-Leu-Leu-Gln-Asp-Ile-Met-Ser-Arg-Gln-Gln-Gly-Glu-Arg-Asn-Gln-Glu-Gln-Gly-Ala-Arg-Val-Arg-Leu) [pGRF(1-44), 44-residue polypeptide isolated from purified extracts of porcine hypothalami]
- intrinsic biological activity to promote the release of growth hormone, compared with synthetic hGRF(1-44)-NH2: full intrinsic biological activity of the synthetic peptide
- potency to promote the release of growth hormone, compared with synthetic hGRF(1-44)-NH2: close to the same potency
